From patent US12325708B2, “Adenosine 2 receptor antagonists” (Nektar Therapeutics, priority 2019, dated 2025)
pKi: −log10 of the molar value.

Columns and labels:
[1] = Plasma pharmacokinetic parameters following intravenous (IV) or oral (PO) administration in rats; assay type: in vivo, Sprague-Dawley rats; details: male, Sprague-Dawley, rat, plasma, Table 6
Procedure, shortened: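 Fasted male Sprague-Dawley rats (230-250 g, n=2/group), dosed 0.5 mg/kg IV (jugular) or 2.5 mg/kg PO gavage in water. Plasma sampled 2–1440 min, analyzed by LC-MS/MS; non-compartmental analysis with nominal doses/times gave AUC, Cmax, Tmax, CL, Vss, MRTlast, F.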

[2] = target: T1, A2A receptor (Homo sapiens, UniProt P29274); assay: Radioligand receptor binding assay, A2A receptor; details: cell membranes overexpressing A2A receptor, read-out: Potency Ki A2A
T1 construct: purchased
T1 sequence (P29274 whole entry): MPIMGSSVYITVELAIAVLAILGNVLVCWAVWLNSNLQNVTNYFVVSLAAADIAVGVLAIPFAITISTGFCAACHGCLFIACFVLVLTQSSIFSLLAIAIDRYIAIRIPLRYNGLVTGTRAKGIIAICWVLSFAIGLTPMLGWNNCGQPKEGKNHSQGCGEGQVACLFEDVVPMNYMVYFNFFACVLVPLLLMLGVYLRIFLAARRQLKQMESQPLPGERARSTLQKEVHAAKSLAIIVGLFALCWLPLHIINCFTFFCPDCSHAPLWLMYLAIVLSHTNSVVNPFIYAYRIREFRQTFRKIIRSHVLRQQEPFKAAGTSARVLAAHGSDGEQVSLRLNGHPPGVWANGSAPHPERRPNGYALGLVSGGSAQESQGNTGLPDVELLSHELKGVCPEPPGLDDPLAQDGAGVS
Procedure, shortened: (§1)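 Membranes from cell lines overexpressing human A2A, A1 or A3 receptors were incubated 60 min at room temperature with the receptor-appropriate [3H] tracer. After filtration and washing in 50 mM Tris HCl pH 7.5, bound label was counted by scintillation. IC50 came from nonlinear regression and Ki from the Cheng-Prusoff equation.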

[3] = target: T2, A1 receptor (Homo sapiens, UniProt P30542); assay: Radioligand receptor binding assay, A1 receptor; details: cell membranes overexpressing A1 receptor, read-out: Potency Ki A1
T2 construct: purchased
T2 sequence (P30542 1-326): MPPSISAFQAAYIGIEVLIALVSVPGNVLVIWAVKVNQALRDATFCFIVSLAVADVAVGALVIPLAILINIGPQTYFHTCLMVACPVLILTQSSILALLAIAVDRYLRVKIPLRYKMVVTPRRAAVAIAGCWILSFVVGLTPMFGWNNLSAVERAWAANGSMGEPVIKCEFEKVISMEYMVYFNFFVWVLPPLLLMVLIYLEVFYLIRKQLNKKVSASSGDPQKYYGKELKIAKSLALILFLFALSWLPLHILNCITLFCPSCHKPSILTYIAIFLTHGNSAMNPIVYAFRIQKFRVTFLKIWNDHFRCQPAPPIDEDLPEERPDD
Procedure, shortened: as §1

[4] = target: T3, A3 receptor (Homo sapiens, UniProt P0DMS8); assay: Radioligand receptor binding assay, A3 receptor; details: cell membranes overexpressing A3 receptor, read-out: Potency Ki A3
T3 construct: purchased
T3 sequence (P0DMS8 1-318): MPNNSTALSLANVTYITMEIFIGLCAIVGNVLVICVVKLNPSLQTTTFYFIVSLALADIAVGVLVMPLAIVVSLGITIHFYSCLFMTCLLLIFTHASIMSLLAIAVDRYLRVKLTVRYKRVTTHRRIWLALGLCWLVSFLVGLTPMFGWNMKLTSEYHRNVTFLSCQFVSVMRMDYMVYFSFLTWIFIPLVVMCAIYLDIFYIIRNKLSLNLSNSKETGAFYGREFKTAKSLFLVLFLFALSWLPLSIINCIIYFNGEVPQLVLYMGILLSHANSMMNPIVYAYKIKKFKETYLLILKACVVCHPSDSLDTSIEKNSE
Experimental: Using conventional receptor binding assay techniques, Compounds 1-24 were assayed to determine binding activity at the A2A, A1, and A3 receptors with the results shown in Table 7.
Receptor binding affinity of Compounds 1-24 was measured using radioligand binding assays using commercially obtained cell membranes prepared from cell lines overexpressing the A2A, A1, or A3 receptors. Briefly, cell membrane preparations from cells expressing the specific receptor were mixed with the appropriate [^3H]-labeled tracer for the specific receptor and the test compound or a known inhibitor of receptor-ligand binding. Following 60 min incubation at room temperature to allow receptor-ligand complex formation, the complexes were collected by filtration, washed with 50 mM Tris HCl (pH 7.5) to remove radioligand that was not receptor-bound, and the remaining radioactivity determined by liquid scintillation counting. Specific radioligand binding was calculated for each test compound concentration and IC50 values were determined by non-linear, regression analysis. Inhibition constants (Ki) were calculated using the equation of Cheng and Prusoff using the observed IC50 of the tested compound, the concentration of radioligand employed in the assay and the experimentally determined values for the Kd of the ligand.

[5] = Brain-to-plasma ratio (B/P) after administration; assay type: in vivo, Sprague-Dawley rats; details: Sprague-Dawley, rat, oral, 2.5 mg/kg; Table 6; brain-to-plasma ratio at 1 h
Procedure, shortened: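 Plasma pharmacokinetic parameters determined after oral (PO) administration; brain-to-plasma concentration ratio (B/P) used as the brain penetration measure.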

Compound: [2H]C([2H])([2H])OC([2H])([2H])C([2H])([2H])Oc1ccc(N2CCN(C([2H])([2H])C([2H])([2H])N(c3cc4nc(-c5ncco5)nn4c(N)n3)C([2H])([2H])[2H])CC2)cc1 [Compound 16, N^7-(^2H3)methyl-N^7-[2-{4-[4-({2-[(^2H3)methyloxy](^2H4)ethyl}oxy)phenyl]piperazin-1-yl}(^2H4)ethyl]-2-(1,3-oxazol-2-yl)[1,2,4]triazolo[1,5-c]pyrimidine-5,7-diamine]
- AUC ([1]; 2.5 mg/kg, oral (PO) administration essentially as described in Example 28): 1200 ng·h/mL
- clearance ([1]; intravenous, 0.5 mg/kg, essentially as described in Example 28): 20 mL/min/kg
- bioavailability ([1]; po, 2.5 mg/kg, oral (PO) administration essentially as described in Example 28): 58%
- pKi [2]: 8.40
- pKi [3]: < 4.00
- pKi [4]: < 5.00
- Kp at 1 h [5]: 0.06
